We go through 13 molecules from US12180485B2, “Repressible control of gene expression” (TRUSTEES OF BOSTON UNIVERSITY, priority 2020, dated 2024).

Usually Kd stands for the concentration at which binding is half-saturated.

One data set has as its target CID domains. Conditions: cited from earlier work; for Kd: ligand / CID dimerization domain, read-out: Dissociation constant (Kd); for Reversibility: reversibility of the ligand-induced dimerization / action.
The test system of another data set is mammalian systems. Conditions: cited from earlier work.
A further data set has as its system Cre reporter. Kind of data set: Caffeine inducible split Cre (CaffVHH), Cre reporter in transfected cells. The class given is cell-based.
In data set [1] the test system is mCherry. The data set can be described thus: Drug inhibited knockdown system (Cas13 OFF switch, dNS3/ANR domains), mCherry expression. It counts as cell-based. To be noted: split Cas13d linked to dNS3 and ANR domains.
Data set [2] concerns mCherry. The data set can be described thus: mCherry knockdown by inducible split RfxCas13d (ON switch) in transfected HEK 293 FT cells, flow cytometry. The class given is cell-based. For orientation: A flow cytometer gives signals particle by particle.
A further data set concerns the target grazoprevir/NS3a complex (Hepatitis C virus genotype 1a, UniProt P27958, T1100M/T1173A). To be noted: cited from earlier work.
The next data set deals with NS3a/danoprevir complex (Hepatitis C virus genotype 1a, UniProt P27958, T1100M/T1173A). To be noted: cited from earlier work.
The target of the next data set is asunaprevir-bound NS3a (Hepatitis C virus genotype 1a, UniProt P27958, T1100M/T1173A). To be noted: cited from earlier work.
The test system of data set [3] is mCherry. Kind of data set: mCherry knockdown by LwaCas13a and PspCas13b, WT and GIB CID split sites. The class given is cell-based. The text has this: Cas13b was able to facilitate over 70% mCherry knockdown. […] Two additional mCherry-targeting crRNA sequences for LwaCas13a were identified; they both offered moderate mCherry knockdown (around 50% in populations highly expressing Cas13a).
With the LwaCas13a and PspCas13b specific mCherry-targeting crRNAs, 12 split sites were screened in PspCas13b, and 11 split sites were screened in LwaCas13a sequences.
Therefore, it is contemplated herein that the knockdown efficiency of split LwaCas13a can be brought up by optimized crRNA design. Moreover, without wishing to be bound by theory, with a more efficient crRNA, GIB-induced knockdown efficiency by splits 397/398, 488/489, 605/606, 786/787, or 826/827 could also be enhanced.

Setting [4] is: toxicity in mammalian systems at working concentration.

Like-named read-outs stand apart in the source and are kept apart here.

As for Gibberellin, at CID domains, the Kd is 1000 nM and the Reversibility result was “yes”. Further, the “Toxicity*” value in the data set with mammalian systems (setting [4]) is given as “yes”.

Take `Cn1c(=O)c2c(ncn2C)n(C)c1=O` [caffeine, reference compound]: at CID domains, the dissociation constant (Kd) was 1200 nM and the Reversibility result is given as “yes”. Further, the “caffeine concentration able to turn on Cre activity and generate reporter expression” value in the data set on Cre reporter (48 hours) stood at 0.1 µM. In addition, in the data set with Cre reporter (FIG. 1C), the “caffeine concentration not sufficient to induce recombination” value came to 0.01 µM and the “caffeine concentration over which recombination efficiency did not increase significantly” value is “over 50 uM”. The “Toxicity*” value in the data set on mammalian systems (setting [4]) was “no”.

For `C=C[C@@H]1C[C@]1(NC(=O)[C@@H]1C[C@@H]2CN1C(=O)[C@H](C(C)(C)C)NC(=O)O[C@@H]1C[C@H]1CCCCCc1nc3ccc(OC)cc3nc1O2)C(=O)NS(=O)(=O)C1CC1.O` [Grazoprevir, reference compound], at CID domains, the dissociation constant Kd was 0.02 nM and the Reversibility result is recorded as “yes”. The “Toxicity*” value with mammalian systems (setting [4]) is “no”. Further, in the data set on mCherry [1], the “inhibition of constitutive knockdown activity of the OFF switch” value is “able to inhibit the constitutive knockdown activity”.

In the case of `CC1=CC(=O)CC(C)(C)[C@@]1(O)/C=C/C(C)=C\C(=O)O` [Abscisic acid], at CID domains, the Kd is 20 nM and the Reversibility result was “yes”. Besides, the “Toxicity*” value in the data set on mammalian systems is listed as “no”.

As to `CO[C@H]1C[C@@H]2CC[C@@H](C)[C@@](O)(O2)C(=O)C(=O)N2CCCC[C@H]2C(=O)O[C@H]([C@H](C)C[C@@H]2CC[C@@H](O)[C@H](OC)C2)CC(=O)[C@H](C)/C=C(\C)[C@@H](O)[C@@H](OC)C(=O)[C@H](C)C[C@H](C)/C=C/C=C/C=C/1C` [Rapamycin], in the data set with mammalian systems (setting [4]), the “Toxicity*” value is recorded as “no”.

Consider `CC/C(=C(\c1ccccc1)c1ccc(OCCN(C)C)cc1)c1ccccc1` [Tamoxifen], for which the Reversibility result with CID domains is “hardly”. For the same molecule, the “Toxicity*” value in the data set with mammalian systems (setting [4]) is “no”.

For the molecule `CC(C)(C)OC(=O)N[C@H]1CCCCC/C=C\[C@@H]2C[C@@]2(C(=O)NS(=O)(=O)C2CC2)NC(=O)[C@@H]2C[C@@H](OC(=O)N3Cc4cccc(F)c4C3)CN2C1=O` [Danoprevir], the “inhibition of constitutive knockdown activity of the OFF switch” value in the data set on mCherry [1] was “able to inhibit the constitutive knockdown activity”.

B1: 507/508: RfxCas13d split pair at 507/508 fused to CID or dNS3/ANR domains (protein)
chain 1: IEKKKSFAKGMGVKSTLVSGSKVYMTTFAEGSDARLEKIVEGDSIRSVNEGEAFSAEMADKNAGYKIGNAKFSHPKGYAVVANNPLYTGPVQQDMLGLKETLEKRYFGESADGNDNICIQVIHNILDIEKILAEYITNAAYAVNNISGLDKDIIGFGKFSTVYTYDEFKDPEHHRAAFNNNDKLINAIKAQYDEFDNFLDNPRLGYFGQAFFSKEGRNYIINYGNECYDILALLSGLRHWVVHNNEEESRISRTWLYNLDKNLDNEYISTLNYLYDRITNELTNSFSKNSAANVNYIAETLGINPAEFAEQYFRFSIMKEQKNLGFNITKLREVMLDRKDMSEIRKNHKVFDSIRTKVYTMMDFVIYRYYIEEDAKVAAANKSLPDNEKSLSEKDIFVINLRGSFNDDQKDALYYDEANRIWRKLENIMHNIKEFRGNKTREYKKKDAPRLPRILPAGRDVSAFSKLMYALTMFLDGKEINDLLTTLINKFDNIQSFLKVMPLIGVN
chain 2: AKFVEEYAFFKDSAKIADELRLIKSFARMGEPIADARRAMYIDAIRILGTNLSYDELKALADTFSLDENGNKLKKGKHGMRNFIINNVISNKRFHYLIRYGDPAHLHEIAKNEAVVKFVLGRIADIQKKQGQNGKNQIDRYYETCIGKDKGKSVSEKVDALTKIITGMNYDQFDKKRSVIEDTGRENAEREKFKKIISLYLTVIYHILKNIVNINARYVIGFHCVERDAQLYKEKGYDINLKKLEEKGFSSVTKLCAGIDETAPDKRKDVEKEMAERAKESIDSLESANPKLYANYIKYSDEKKAEEFTRQINREKAKTALNAYLRNTKWNVIIREDLLRIDNKTCTLFRNKAVHLEVARYVHAYINDIAEVNSYFQLYHYIMQRIIMNERYEKSSGKVSEYFDAVNDEKKYNDRLLKLLCVPFGYCIPRFKNLSIEALFDRNEAAKFDKEKKKVSGNS
modifications: fused CID or dNS3/ANR domains
notes: RfxCas13d split pair at 507/508 fused to CID or dNS3/ANR domains
Consider B1, for which, in the data set on mCherry [2] (GIB: N ss-GAI/GID-ss C, ABA: N ss-PYL/ABI-ss C), the “performance of reversed CID orientation versus original orientation” value is “stronger inducibility and weaker leakiness”. Further, in the data set with mCherry [2] (split pairs coupled with CID domains, with inducer), the “knockdown across the various CID systems” value was “consistently strong drug-induced knockdown”.

B2: single CaffVHH: single CaffVHH version of split Cre 270/271 (protein)
VHH: EVQLQASGGGLVQAGGSLRLSCTASGRTGTIYSMAWFRQAPGKEREFLATVGWSSGITYYMDSVKGRFTISRDNAKNSAYLQMNSLKPEDTAVYYCTATRAYSVGYDYWGQGTQVTVSH
On to B2, for which the “caffeine concentration achieving maximum recombination efficiency” value in the data set on Cre reporter (dose response, split Cre 270/271) is 500 µM.

B3: G3: reader domain, SEQ ID NO: 168 (protein)
chain: DIEKLCKKAEEEAKEAQEKADELRQRHPDSQAAEDAEDLANEAEAAVLAACSLAQEHPNADIAKLCIKAASEAAEAASKAAELAQRHPDSQAARDAIKLASQAARAVILAIMLAAENPNADIAKLCIKAASEAAEAASKAAELAQRHPDSQAARDAIKLASQAAEAVERAIWLAAENPNADIAKKCIKAASEAAEEASKAAEEAQRHPDSQKARDEIKEASQKAEEVKERCKS
On to B3, for which the “binding of NS3 in the presence of grazoprevir” value (shortened to “binding of NS3 … of grazoprevir”) in the data set with grazoprevir/NS3a complex is given as “moderate binding”. Also, the “binding of NS3 in the presence of danoprevir” value (“binding of NS3 … of danoprevir” for short) with NS3a/danoprevir complex was “no binding”. Besides, the “binding of NS3 in the presence of asunaprevir” value (shortened to “binding of NS3 … of asunaprevir”) in the data set with asunaprevir-bound NS3a is on record as “some binding”.

B4: LwaCas13a: Cas13a from Leptotrichia wadei (protein, listed as Leptotrichia wadei)
chain: MKVTKVDGISHKKYIEEGKLVKSTSEENRTSERLSELLSIRLDIYIKNPDNASEEENRIRRENLKKFFSNKVLHLKDSVLYLKNRKEKNAVQDKNYSEEDISEYDLKNKNSFSVLKKILLNEDVNSEELEIFRKDVEAKLNKINSLKYSFEENKANYQKINENNVEKVGGKSKRNIIYDYYRESAKRNDYINNVQEAFDKLYKKEDIEKLFFLIENSKKHEKYKIREYYHKIIGRKNDKENFAKIIYEEIQNVNNIKELIEKIPDMSELKKSQVFYKYYLDKEELNDKNIKYAFCHFVEIEMSQLLKNYVYKRLSNISNDKIKRIFEYQNLKKLIENKLLNKLDTYVRNCGKYNYYLQVGEIATSDFIARNRQNEAFLRNIIGVSSVAYFSLRNILETENENGITGRMRGKTVKNNKGEEKYVSGEVDKIYNENKQNEVKENLKMFYSYDFNMDNKNEIEDFFANIDEAISSIRHGIVHFNLELEGKDIFAFKNIAPSEISKKMFQNEINEKKLKLKIFKQLNSANVFNYYEKDVIIKYLKNTKFNFVNKNIPFVPSFTKLYNKIEDLRNTLKFFWSVPKDKEEKDAQIYLLKNIYYGEFLNKFVKNSKVFFKITNEVIKINKQRNQKTGHYKYQKFENIEKTVPVEYLAIIQSREMINNQDKEEKNTYIDFIQQIFLKGFIDYLNKNNLKYIESNNNNDNNDIFSKIKIKKDNKEKYDKILKNYEKHNRNKEIPHEINEFVREIKLGKILKYTENLNMFYLILKLLNHKELTNLKGSLEKYQSANKEETFSDELELINLLNLDNNRVTEDFELEANEIGKFLDFNENKIKDRKELKKFDTNKIYFDGENIIKHRAFYNIKKYGMLNLLEKIADKAKYKISLKELKEYSNKKNEIEKNYTMQQNLHRKYARPKKDEKFNDEDYKEYEKAIGNIQKYTHLKNKVEFNELNLLQGLLLKILHRLVGYTSIWERDLRFRLKGEFPENHYIEEIFNFDNSKNVKYKSGQIVEKYINFYKELYKDNVEKRSIYSDKKVKKLKQEKKDLYIRNYIAHFNYIPHAEISLLEVLENLRKLLSYDRKLKNAIMKSIVDILKEYGFVATFKIGADKKIEIQTLESEKIVHLKNLKKKKLMTDRNSEELCELVKVMFEYKALE
Take B4: the “mCherry knockdown compared to no crRNA control group” value in the data set with mCherry [3] (position-matched LwaCas13a crRNA) is “did not achieve mCh knockdown”. Further, the mCherry knockdown result in the data set on mCherry [3] (two additional mCherry-targeting crRNA sequences, populations highly expressing Cas13a) is reported as “around 50%”.

B5: D5: reader domain, SEQ ID NO: 166 (protein)
chain: SSDEEEARELIERAKEAAERAQEAAERTGDPRVRELARELKRLAQEAAEEVKRDPSSSDVNEALKLIVEAIEAAVDALEAAERTGDPEVRELARELVRLAVEAAEEVQRNPSSSDVNEALLTIVIAIEAAVNALEAAERTGDPEVRELARELVRLAVEAAEEVQRNPSSREVNIALWKIVLAIQEAVESLREAEESGDPEKREKARERVREAVERAEEVQRDPSGWLNH
Turning to B5, the “binding of NS3 … of grazoprevir” value with grazoprevir/NS3a complex is reported as “moderate binding”. Further, the “binding of NS3 … of danoprevir” value with NS3a/danoprevir complex was “moderate binding”. Further, in the data set with asunaprevir-bound NS3a, the “binding of NS3 … of asunaprevir” value is listed as “some binding”.

B6: DNCR1: danoprevir/NS3 complex reader, SEQ ID NO: 167 (protein)
chain: SSDEEEARELIERAKEAAERAQEAAERTGDPRVRELARELKRLAQEAAEEVKRDPSSSDVNEALKLIVEAIEAAVDALEAAERTGDPEVRELARELVRLAVEAAEEVQRNPSSSDVNEALLSIVIAIEAAVHALEAAERTGDPEVRELARELVRLAVEAAEEVQRNPSSREVEHALMKIVLAIYEAEESLREAEESGDPEKREKARERVREAVERAEEVQRDPSGWLNH
For B6, in the data set with grazoprevir/NS3a complex, the “binding of NS3 … of grazoprevir” value is “minimal binding”. The “binding of NS3 … of danoprevir” value with NS3a/danoprevir complex is recorded as “high binding”. Besides, the “binding of NS3 … of asunaprevir” value in the data set with asunaprevir-bound NS3a was “minimal binding”.
